Measured values taken from patent US20170095522A1, “Compositions Containing Extracts of Curcuma SPP and Zingiber officinale Which Are Useful to Reduce Peripheral Inflammation and Pain” (INDENA S.p.A., priority 2015, published 2017).
Marks after values point to notes of the source that are not given here.

Assays:
[1] = system: patients with grade I or II hip osteoarthritis; assay: Karnofsky Performance Scale Index in 8-month hip osteoarthritis study; format: in vivo, human
Experimental: The clinical end-points (WOMAC score, Karnofsky Performance Scale Index and treadmill walking performance) were evaluated for the single agents and for the combination of the two vs. a placebo. […] 100 patients with grade I or II hip osteoarthritis, confirmed by X-ray analysis, were enrolled in the study. The patients were allowed to self-medicate with NSAIDs during the 8-month trial. […] Group C received a combination of curcumin and Zingiber officinale at the same doses as reported above for the single ingredients. The last group received a corresponding placebo. To ensure clinical homogeneity, the main location of the osteoarthritis in these subjects, and the source of most of their signs and symptoms, was in one or both hips. Primary osteoarthritis in one or both hips was diagnosed by X-ray investigation. The subjects had mild to moderate pain not adequately or completely controlled with anti-inflammatory drugs. They had to be able to perform the treadmill walking test and to understand all the questions in the WOMAC questionnaire. The Karnofsky Performance Scale Index was used to classify the patients in terms of functional impairment. The Karnofsky Performance Scale Index can be used to compare the effectiveness of different treatments and to assess the prognosis in individual patients. The lower the Karnofsky score, the worse the patient's functional impairment. The variations in the results (i.e. walking distance) were considered parametric. Non-parametric observations (e.g. the WOMAC score) were evaluated with analysis of variance (ANOVA with the Bonferroni correction). Considering the possible intra-individual and inter-individual data variations, at least 40 completing subjects were needed for this type of study (at least 40 subjects who completed the entire follow-up period in each group). This numerical value was established, on the basis of our previous study, with a view to eliminating spontaneous variability and time variations. OA and its related signs/symptoms, even under conditions of relative stability, may have a spontaneous degree of variability associated with periods of improvement. Clinical variations in signs/symptoms, walking distance, oedema and the Karnofsky scale may be due to various clinical and non-clinical (i.e.

[2] = cited from earlier work
[3] = system: patients with grade I or II hip osteoarthritis; assay: Treadmill walking test, total pain-free distance; format: in vivo, human; conditions: 3 km/hour, 10% incline
Experimental: The clinical end-points (WOMAC score, Karnofsky Performance Scale Index and treadmill walking performance) were evaluated for the single agents and for the combination of the two vs. a placebo. […] 100 patients with grade I or II hip osteoarthritis, confirmed by X-ray analysis, were enrolled in the study. The patients were allowed to self-medicate with NSAIDs during the 8-month trial. […] Group C received a combination of curcumin and Zingiber officinale at the same doses as reported above for the single ingredients. The last group received a corresponding placebo. To ensure clinical homogeneity, the main location of the osteoarthritis in these subjects, and the source of most of their signs and symptoms, was in one or both hips. Primary osteoarthritis in one or both hips was diagnosed by X-ray investigation. The subjects had mild to moderate pain not adequately or completely controlled with anti-inflammatory drugs. They had to be able to perform the treadmill walking test and to understand all the questions in the WOMAC questionnaire. […] On inclusion and after 1 month, 4 months and 8 months treatment, the patient's performance was evaluated with the treadmill test at a speed of 3 km/h and an incline of 10%. The total pain-free distance was recorded. […] Non-parametric observations (e.g. the WOMAC score) were evaluated with analysis of variance (ANOVA with the Bonferroni correction). […]

[4] = preliminary clinical trials; oral; cited from earlier work
[5] = system: patients with grade I or II hip osteoarthritis; assay: WOMAC scores (signs/symptoms of osteoarthritis) in 8-month hip osteoarthritis study; format: in vivo, human
Experimental: The clinical end-points (WOMAC score, Karnofsky Performance Scale Index and treadmill walking performance) were evaluated for the single agents and for the combination of the two vs. a placebo. […] 100 patients with grade I or II hip osteoarthritis, confirmed by X-ray analysis, were enrolled in the study. The patients were allowed to self-medicate with NSAIDs during the 8-month trial. […] Group C received a combination of curcumin and Zingiber officinale at the same doses as reported above for the single ingredients. The last group received a corresponding placebo. To ensure clinical homogeneity, the main location of the osteoarthritis in these subjects, and the source of most of their signs and symptoms, was in one or both hips. Primary osteoarthritis in one or both hips was diagnosed by X-ray investigation. The subjects had mild to moderate pain not adequately or completely controlled with anti-inflammatory drugs. They had to be able to perform the treadmill walking test and to understand all the questions in the WOMAC questionnaire. The questionnaire developed by the Western Ontario and McMaster Universities was applied to describe and rate the symptoms of OA. The questionnaire produces scores for the various symptoms of OA (WOMAC scores). The status of the OA signs/symptoms was evaluated by the investigator together with the patient on inclusion, and after 1 month, 4 months and 8 months treatment. The variations in the results (i.e. walking distance) were considered parametric. Non-parametric observations (e.g. the WOMAC score) were evaluated with analysis of variance (ANOVA with the Bonferroni correction). Considering the possible intra-individual and inter-individual data variations, at least 40 completing subjects were needed for this type of study (at least 40 subjects who completed the entire follow-up period in each group). This numerical value was established, on the basis of our previous study, with a view to eliminating spontaneous variability and time variations. OA and its related signs/symptoms, even under conditions of relative stability, may have a spontaneous degree of variability associated with periods of improvement. Clinical variations in signs/symptoms, walking distance, oedema and the Karnofsky scale may be due to various clinical and non-clinical (i.e.

## COc1cc(/C=C/C(=O)CC(=O)/C=C/c2ccc(O)c(OC)c2)ccc1O [Curcumin, curcumin]
[1]; 1 month treatment, curcumin 1000 mg/day and/or Zingiber officinale extract 100 mg/day
  Karnofsky scale (median): 77
[1]; 4 months treatment, curcumin 1000 mg/day and/or Zingiber officinale extract 100 mg/day
  Karnofsky scale (median): 80*
[1]; 8-month study
  Karnofsky Scale scores, result in words: significantly improved
[1]; 8 months treatment, curcumin 1000 mg/day and/or Zingiber officinale extract 100 mg/day
  Karnofsky scale (median): 81*
[1]; Inclusion (baseline), hip osteoarthritis patients
  Karnofsky scale (median): 73
[2]
  Solubility in water and fats: poorly soluble
[3]; 1 month treatment
  Treadmill distance (median), total pain-free distance: 100*
[3]; R = recruitment (baseline)
  Treadmill distance (median), total pain-free distance: 77
[4]
  Bioavailability: low bioavailability
[5]; 1 month treatment
  WOMAC Pain mean score: 13
  WOMAC Physical functions mean score: 45
  WOMAC Stiffness mean score: 5
[5]; R = recruitment (baseline)
  WOMAC Pain mean score: 16
  WOMAC Physical functions mean score: 55
  WOMAC Stiffness mean score: 7
[5]; after one month's administration, p<0.05
  WOMAC pain scores, result in words: fell significantly
